The source of these data is patent US20240199548A1, “NOVEL COMPOUNDS USEFUL AS STING AGONISTS AND USES THEREOF” (Jacobio Pharmaceuticals Co., Ltd., priority 2021, published 2024).

The experiment concerns the target human STING WT protein (Homo sapiens, UniProt Q86WV6). Nature of the experiment: Human STING WT binding assay (Cisbio HTRF). The settings on record: HTRF competition with STING WT ligand d2, 6 His-tagged human STING WT, 3 hours at RT; read-out: hSTING WT binding IC50. The procedure: Example A: Human STING WT Binding Assay
Cisbio Bioassays' human STING WT binding assay (#64 BDSTGPEG & 64 BDSTGPEH, Cisbio) is for quantitative measurement of human STING WT ligand using HTRF® technology.
Negative control: Dispense 5 μL of diluent into each negative control well. Standard: Dispense 5 μL of each Human STING WT Standard 2′3′-cGAMP (Std 0-Std 7) into each standard well. Compound: Dispense 5 μL of compound into each compound well.
Negative control: Add 5 μL of detection buffer to all wells. Other wells: Add 5 μL of human STING WT protein 6 His-tagged protein to all wells.
Add 10 μL of premixed STING WT ligand d2 reagent and 6 His Tb antibody working solution to all wells.
Seal the plate and incubate 3 hours at RT or at Over Night if necessary.
Remove the plate sealer and read on an HTRF® compatible reader (PerkinElmer, USA). Results were analyzed with a two-wavelength signal ratio:intensity (665 nm)/intensity (620 nm).
Fit the data in GraphPad to obtain IC50 values using equation (2)
Y=Bottom+(Top−Bottom)/(1+10^((Log IC50−X)*Hill Slope)) Equation (2)
Y is HTRF Ratio and X is compound concentration.
For orientation: Time-resolved FRET reads energy transfer from a long-lived donor to a nearby acceptor.

human STING WT protein, sequence (Q86WV6 whole entry H232R): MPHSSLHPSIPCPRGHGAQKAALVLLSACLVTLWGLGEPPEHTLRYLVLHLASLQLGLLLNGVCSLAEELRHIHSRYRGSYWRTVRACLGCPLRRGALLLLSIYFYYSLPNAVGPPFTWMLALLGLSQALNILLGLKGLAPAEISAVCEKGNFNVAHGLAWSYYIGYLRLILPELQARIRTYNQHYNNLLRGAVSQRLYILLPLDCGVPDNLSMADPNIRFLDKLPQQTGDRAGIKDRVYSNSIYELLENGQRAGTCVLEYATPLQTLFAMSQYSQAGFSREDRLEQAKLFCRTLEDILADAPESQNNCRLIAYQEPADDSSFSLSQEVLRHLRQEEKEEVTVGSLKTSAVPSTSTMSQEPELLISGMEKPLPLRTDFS

As usually defined, the IC50 is the concentration that inhibits the measured activity by half. Regarding `COc1cc2c(cc1OCCCOc1cc3c(cc1OC)CN(C(=O)C[C@H](C)C(=O)O)C3)CN(C(=O)CCC(=O)O)C2` [Example 3, Sodium (S)-4-(5-(3-((2-(3-carboxylatopropanoyl)-6-methoxyisoindolin-5-yl)oxy)propoxy)-6-methoxyisoindolin-2-yl)-2-methyl-4-oxobutanoate], the IC50 turned out to be 1.63 nM.

For `COc1cc2c(cc1OCCCOc1cc3c(cc1OC)CN(C(=O)NCCC(=O)O)C3)CN(C(=O)CCC(=O)O)C2` [Example 14, 4-(5-(3-((2-((2-carboxyethyl)carbamoyl)-6-methoxyisoindolin-5-yl)oxy)propoxy)-6-methoxyisoindolin-2-yl)-4-oxobutanoic acid], the IC50 is 144 nM.

Take `COc1cc2c(cc1OCCCOc1cc3c(c(F)c1OC)CN(C(=O)CCC(=O)O)C3)CN(C(=O)CCC(=O)O)C2` [Example 2, 4-(6-(3-((2-(3-carboxypropanoyl)-6-methoxyisoindolin-5-yl)oxy)propoxy)-4-fluoro-5-methoxyisoindolin-2-yl)-4-oxobutanoic Acid]: the IC50 was 33.7 nM.

`COc1cc2c(c(F)c1OCCCOc1c(OC)cc3c(c1F)CN(C(=O)CCC(=O)O)C3)CN(C(=O)CCC(=O)O)C2` [Example 9, 4,4′-((propane-1,3-diylbis(oxy))bis(4-fluoro-6-methoxyisoindoline-5,2-diyl))bis(4-oxobutanoic acid)]: the IC50 is 0.32 nM.

For the compound `COc1cc2c(nc1OCCCOc1nc3c(cc1OC)CN(C(=O)CCC(=O)O)C3)CN(C(=O)CCC(=O)O)C2` [Example 5, 4,4′-((propane-1,3-diylbis(oxy))bis(3-methoxy-5,7-dihydro-6H-pyrrolo[3,4-b]pyridine-2,6-diyl))bis(4-oxobutanoic Acid)], the IC50 is 3.28 nM.

For the compound `COc1cc2c(cc1OCCCOc1c(OC)cc3c(c1F)CN(C(=O)CCC(=O)O)C3)CN(C(=O)CCC(=O)O)C2` [Example 4, 4-(5-(3-((2-(3-carboxypropanoyl)-4-fluoro-6-methoxyisoindolin-5-yl)oxy)propoxy)-6-methoxyisoindolin-2-yl)-4-oxobutanoic Acid], the IC50 worked out at 0.68 nM.

Turning to `COc1cc2c(cc1OCCCOc1cc3c(cc1OC)CN(C(=O)CCC(=O)O)C3)CN(C(=O)CCC(=O)O)C2` [Example 1, 4,4′-((propane-1,3-diylbis(oxy))bis(6-methoxyisoindoline-5,2-diyl))bis(4-oxobutanoic Acid)], the IC50 is under 0.1 nM.

With `COc1cc2c(c(F)c1OCCCOc1c(OC)cc3c(c1Cl)CN(C(=O)CCC(=O)O)C3)CN(C(=O)CCC(=O)O)C2` [Example 13, 4-(5-(3-((2-(3-carboxypropanoyl)-4-chloro-6-methoxyisoindolin-5-yl)oxy)propoxy)-4-fluoro-6-methoxyisoindolin-2-yl)-4-oxobutanoic acid], the IC50 worked out at 149 nM.

Consider `C=C(COc1cc2c(cc1OC)CN(C(=O)CCC(=O)O)C2)COc1cc2c(cc1OC)CN(C(=O)CCC(=O)O)C2` [Example 10, 4,4′-(((2-methylenepropane-1,3-diyl)bis(oxy))bis(6-methoxyisoindoline-5,2-diyl))bis(4-oxobutanoic acid)], for which the IC50 came to 150 nM.
